Assay [1] relates to genes involved in neuronal differentiation, inflammation, apoptosis. Nature of the assay: Microarray analysis of gene transcription in midbrain cultures. In kind it is cell-based, mice. The settings on record: vs control cultures. The text has this:
These findings were further sustained by so-called microarray methods. The analyses confirm that the transcription of genes involved in neuronal differentiation is increased.

Another assay has as its system neurons (total). Nature of the assay: Total number of neurons in midbrain culture (different dyes). The settings on record: 50 μM, 48 hours; not as much as dopaminergic neurons. In kind it is cell-based, mice. Here is the method: FIG. 3 Percentage of neurons (total) after incubation with 50 μM 9-methyl-β-carboline for 48 hours from 10 DIV-12 DIV.
9-methyl-β-carboline was used to show whether only dopaminergic neurons were influenced, or other neurons or glial cells as well. This question can be answered by the use of different dyes.

The subject of assay [2] is brain-derived neurotrophic factor (BDNF). In words: PCR superarray of RNA from the striata of MPP+ rats: BDNF. Format: in vivo, rat. The text has this:
(§1) To investigate Parkinson's disease acute in vivo models are used for years although chronic models would be a better model for the disease. Another disadvantage of the acute models is that ca. 40% of the animals die from the application of the neurotoxin. Therefore, we have chosen a chronic model in which comparably very low doses of neurotoxin 1-methyl-4-phenylpyridinium (MPP^+) were infused for 28 days into the left lateral ventricle of the rat brain. The substance was continuously applied through osmotic minipumps. Thereby, casualties were completely avoided. After four weeks, either solvent or equimolar amounts of the sample substance, namely neuroprotective betacarboline, resp. 9-alkyl-betacarboline was infused for two weeks via the same catheter. In a preliminary study for dose-finding the MPP^+ dose which leads to a reduction by 40% of the dopamine concentration in the striatum was determined. The dopamine concentration in the striatum is a characteristic marker for Parkinson's disease in which a degeneration of dopaminergic neurons occurs.
An explanation for the effect of the betacarboline was found in the tests of the RNA from the striata of these rats through the PCR superarray method. Accordingly, the betacarboline activates the generation of neurotrophins, thus proteins produced naturally in the body, which are responsible for the growth and differentiation of neurons. […]

Assay [3] relates to dopamine concentration in the striatum. Nature of the assay: Chronic MPP+ infusion model of Parkinson's disease, dopamine concentration in the striatum. Format: in vivo, rat. The note with it: rat.
Source text: In the diagram the dopamine (DA) levels of the left and right striatum of the single rats are indicated.
as §1
The compounds A to L were tested as described in example 8. The test results of the compounds A to L are indicated in the following table in comparison to 9-methyl-β-carboline.

Assay [4] concerns Sonic Hedgehog, Wnt 1, Wnt 5a, engrailed 1, Nurr 1, Pitx 3, Aldh1a1, DAT, tyrosin hydroxylase. Nature of the assay: Real-time-RT-PCR of neurotrophic transcription factors and dopamine markers in midbrain cultures. The settings on record: 50 μM, 48 hours and 48 hours after removal. Format: cell-based, mice. Here is the method:
FIG. 7 Evidence of gene expression of neurotrophic transcription factors and dopamine markers with real-time-RT-PCR after incubation with 50 μM 9-methyl-β-carboline for 48 hours 10 DIV-12 DIV.
For this purpose, real-time-RT-PCR experiments were carried out. In this quantitative method the transcription of selected genes is measured. We selected genes which are enhanced under proliferation and differentiation conditions and such that are of importance for the formation, stability and degradation of dopaminergic neurons. The analyses were conducted in midbrain cultures after exposition to 50 μM 9-methyl-β-carboline for 48 hours and 48 hours after removal of 9-methyl-β-carboline. Control cultures were kept simultaneously under the same conditions. […] Moreover, factors were increased which are activated during the formation of dopaminergic precursor cells (progenitor cells) (Aldh1a1), the dopamine transporter (DAT) and tyrosin hydroxylase.

Assay [5] has as its system undifferentiated multipotent neuronal precursor cells from the midbrain of mouse embryos. In words: Differentiation of multipotent neuronal precursor cells with compound in culture medium. In kind it is cell-based. The note with it: 50 μM final concentration once per week. The protocol: To verify if 9-methyl-β-carboline increases the efficiency of culture media for the experiments with neurons and for tissue engineering, pilot experiments were carried out by way of example with undifferentiated multipotent neuronal precursor cells from the midbrain of mouse embryos (embryonic day 14). By suitable cultivation procedures a cell suspension was produced which was kept for four weeks in a medium that contained, inter alia, growth factors from fibroblasts and the skin (epidermal growth factor). After this time the neuronal precursor cells were differentiated in a medium to promote the maturation of neurons. After a week, about 40% of the cells could be stained by a neuronal marker (β-tubulin, type III). Most other cells were glial cells. A small percentage of the neurons could be colored additionally with the antibody for tyrosin hydroxylase (˜3%). This means that about three percent of the neurons were from the dopaminergic cell type. The enzyme tyrosin hydroxylase can only be found in the midbrain in dopaminergic neurons.
Under corresponding conditions 9-methyl-β-carboline (50 μM final concentration) were added to the culture medium once per week, also once to the differentiation medium. […]

In another assay the test system is dopaminergic neurons. Nature of the assay: Primary midbrain culture, tyrosin hydroxylase staining and counting of dopaminergic neurons. In kind it is cell-based, mice. Here is the method: The experiments were carried out with the human neuroblastoma cell line (SH-SY5Y-cells) and with a cell culture of primary nerve cells from the mice embryo midbrain. […] Moreover, the mentioned compounds induce in the primary culture from the mice embryo midbrain the generation of new, differentiated and functional dopaminergic neurons.
To this aim midbrain cultures were prepared and kept for 10-12 days (DIV=Days in vitro) in an appropriate medium to accustom to in vitro conditions. Then 9-methyl-β-carboline was added in increasing concentrations and it was waited for 48 hours. Dopaminergic neurons were identified by staining with tyrosin hydroxylase. This enzyme occurs only in dopaminergic midbrain neurons. The number of dopaminergic neurons can be counted reliably with this method. In addition, hints can be obtained whether the dopaminergic neurons are mature or if they are precursor cells. The mature cells have characteristic extensions which also contain tyrosin hydroxylase.

Take `Cn1c2ccccc2c2ccncc21` [9-methyl-β-carboline]: in assay [1], the “transcription of genes involved in apoptosis” value was “transcribed less”, the “transcription of genes involved in neuronal differentiation” value is recorded as “increased” and the “transcription of genes which activate inflammation processes” value is given as “transcribed less”. Moreover, in the assay with neurons (total), the “total number of neurons” value was “increases”. Also, the “increase of BDNF compared to rats infused solvent only for six weeks” value in assay [2] (left striatum) came out at 4.9 times. The “increase of BDNF compared to rats infused solvent only for six weeks” value in assay [2] (right striatum) stood at 8.5 times. Further, the “dopamine concentration in the left striatum” value in assay [3] (4 weeks MPP+ then 2 weeks compound (equimolar, 0.105 mg/kg/day) into left ventricle) is “normalized”. For the same compound, the “effect in an established model of Parkinson's disease” value in assay [3] (chronic MPP+ model) is listed as “neuroprotective effect”. Moreover, in assay [4], the “transcription of Aldh1a1, dopamine transporter (DAT) and tyrosin hydroxylase” value is given as “increased”; the “transcription of Sonic Hedgehog, Wnt 1, Wnt 5a, engrailed 1, Nurr 1 and Pitx 3” value is “activated”. In addition, in assay [5], the “increase of percentage of dopaminergic cells” value is 25%. Moreover, in assay [5] (3 independent experiments), the “increase of amount of neurons compared to control conditions” value stood at 15%. In addition, in the assay with dopaminergic neurons (50 μM 9-Me-BC with DAT inhibitor GBR12909, 48 hours), the “increase in dopaminergic neurons after inactivation of the dopamine transporter DAT” value is given as “does not occur”. The “cellular extensions and branching of dopaminergic neurons” value in the assay with dopaminergic neurons (50 μM, 48 hours, vs control without compound) was “significantly more cellular extensions”. Besides, in the assay with dopaminergic neurons (10-200 μM, 48 hours, 10 DIV-12 DIV, increase up to ca. 100 μM), the “number of dopaminergic neurons” value was “increased dose-dependently”.

(Values after patent US8334299B2, “β-carboline for the treatment of neurodegenerative diseases” (Ellneuroxx, Ltd., priority 2007, dated 2012).)
